Measurements: ChEMBL document CHEMBL4610091, “Antimalarial 9-Methoxystrobilurins, Oudemansins, and Related Polyketides from Cultures of Basidiomycete Favolaschia Species” (J Nat Prod, 2020)

Columns and labels:
NCI-H187 = experiment: Cytotoxicity against human NCI-H187 cells by resazurin microplate assay; assay type: functional, cell-based
Vero = experiment: Cytotoxicity against African green monkey Vero cells by green fluorescent protein-based assay; assay type: cell-based; conditions: Chlorocebus sabaeus
Plasmodium falciparum = experiment: Antiplasmodial activity against Plasmodium falciparum K1 assessed as reduction in [3H]-hypoxanthine after 42 hrs by microculture radioisotope technique; assay type: functional, organism-based
MCF7 = experiment: Cytotoxicity against human MCF7 cells by resazurin microplate assay; assay type: functional, cell-based
[1] = Selectivity index, ratio of IC50 for African green monkey Vero cells to IC50 for Plasmodium falciparum K1; assay type: toxicity; conditions: read-out: Ratio IC50

Compound	IC50 (NCI-H187) [µM]	IC50 (Vero) [µM]	IC50 (Plasmodium falciparum) [µM]	IC50 (MCF7) [µM]	selectivity ratio [1]
COC(=O)c1cc(-c2ccc3c(c2)O[C@@]2(CO3)O[C@H](C=C(C)C)OC2(C)C)cc(OC)c1C	53.4	13.6	> 22	–	–
CO/C=C(/C(=O)OC)[C@H](C)[C@@H](O)/C=C/c1ccccc1	160	> 181	> 36	–	–
C[C@H]1[C@@H](O)O[C@@H]2O[C@@]3(C)CC[C@H]4[C@H](C)CC[C@@H]1[C@@]24OO3 [ARTENIMOL]	–	–	0.0031	–	–
CO\C=C(C(=O)OC)/C(C)=C\C=C\c1ccc2c(c1)OC(C)(C)[C@@H](OCC=C(C)C)CO2	4.9	> 113	0.84	24.8	> 135
COC(=O)/C(COC(=O)Cc1ccccc1)=C(/C)[C@H](/C=C/c1ccc(Cl)c(OC)c1)OC	37.9	55.4	> 22	> 109	–
CO/C=C(/C(=O)OC)[C@H](C)[C@H](/C=C/c1ccc2c(c1)OC(C)(C)[C@@H](O)CO2)OC	56.9	> 123	22.3	> 123	> 5.2
CO/C=C(/C(=O)OC)[C@H](C)[C@H](/C=C/c1ccc2c(c1)OC(C)(C)[C@@H](OCC=C(C)C)CO2)OC	2.2	28.2	0.48	> 105	58.8
CO\C=C(C(=O)OC)/C(C)=C(\C=C\c1ccc2c(c1)O[C@@]1(CO2)O[C@H](C=C(C)C)OC1(C)C)OC	3.3	> 103	0.14	> 103	> 736
CC(=O)OCC/C(C)=C\[C@H](O)[C@H](O)c1ccccc1	> 189	> 189	> 38	> 189	–
CO/C=C(/C(=O)OC)C(C)C(=O)/C=C/c1ccccc1 (centres undefined)	60.1	> 182	> 36	> 182	–
C=CC(C)(C)O[C@H]1COc2ccc(/C=C/[C@H](OC)[C@@H](C)/C(=C\OC)C(=O)OC)cc2OC1(C)C	0.96	24.5	0.24	> 105	102
C=CC(C)(C)O[C@H]1COc2cc(C(=O)OC)c(C)c(OC)c2OC1(C)C	54.8	43.4	8.4	> 113	–
CO/C=C(/C(=O)OC)[C@H](C)[C@H](/C=C/c1cccc(OC)c1)OC	97.7	112	10.3	> 156	10.9
COC(=O)/C(CO)=C(/C)[C@H](/C=C/c1ccccc1)OC	> 181	> 181	> 36	> 181	–
O[C@@H](c1cc(C(F)(F)F)nc2c(C(F)(F)F)cccc12)[C@H]1CCCCN1	–	–	0.052	–	–
Cc1c2ccncc2c(C)c2c1[nH]c1ccccc12 [ELLIPTECINE]	9.3	7.47	–	–	–
C[C@]1([C@@H]2Cc3cc(C(N)=O)cc(Cl)c3O2)CCC(=O)O1	> 169	> 169	> 34	> 169	–
C/C(=C/[C@H](O)[C@H](O)c1ccccc1)CCO	> 225	> 225	> 45	> 225	–
COC(=O)/C(CO)=C(/C)[C@H](/C=C/c1ccc(Cl)c(OC)c1)OC	141	123	> 29	> 147	–
CO/C=C(/C(=O)OC)C(C)C(=O)/C=C/c1ccc2c(c1)O[C@@]1(CO2)O[C@H](C=C(C)C)OC1(C)C (mixture of isomers)	5.8	18.4	10.8	23.2	1.7
C/C(=C\c1ccccc1)[C@@H](O)C(C)(C)C(=O)O	> 213	> 213	> 43	> 213	–
C/C(=C\c1ccccc1)[C@@H](O)C(C)(C)O	> 242	> 242	> 48	> 242	–
CO/C=C(/C(=O)OC)C(C)C(=O)/C=C/c1ccc2c(c1)OC(C)(C)[C@@H](OCC=C(C)C)CO2 (some centres undefined)	9.4	68.2	4.2	> 109	16.3
C=CC(C)(C)O[C@H]1COc2ccc(/C=C/C(OC)=C(C)\C(=C/OC)C(=O)OC)cc2OC1(C)C	0.15	97.9	0.089	44.1	1100
COC(=O)c1cc(-c2ccccc2)cc(OC)c1C	188	74	> 39	> 195	–
